Source: the supplement of paper PMC11061612

Columns and labels:
Experiment in all cases: Bliss excess, mean over the matrix (fraction); higher = more synergy
[1] = system: 8-MG-BA (Glioblastoma)
In short: (§1)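 Bliss excess equals the observed combination effect minus the expected value EA + EB − EA·EB, where EA and EB are the effects of each agent alone. Combination Emax is the second-highest inhibition within the matrix. Inhibition was scaled from CellTiter-Glo 2.0 luminescence, with 0 set by vehicle wells and 1 by blank wells, after 72 hours of two-drug dosing of cells plated in 1536-well plates.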

[2] = system: A498 (Kidney Carcinoma)
In short: as §1

[3] = system: ARH-77 (Non-Cancerous)
In short: as §1

[4] = system: CAL-29 (Bladder Carcinoma)
In short: as §1

[5] = system: CAS-1 (Glioblastoma)
In short: as §1

[6] = system: COR-L311 (Small Cell Lung Carcinoma)
In short: as §1

[7] = system: FU97 (Gastric Carcinoma)
In short: as §1

[8] = system: GI-ME-N (Neuroblastoma)
In short: as §1

[9] = system: HCC1954 (Breast Carcinoma)
In short: as §1

[10] = system: IGR-37 (Melanoma)
In short: as §1

[11] = system: MDST8 (Colorectal Carcinoma)
In short: as §1

[12] = system: NCI-H1581 (Non-Small Cell Lung Carcinoma)
In short: as §1

[13] = system: NCI-H2591 (Mesothelioma)
In short: as §1

[14] = system: NCI-H64 (Small Cell Lung Carcinoma)
In short: as §1

[15] = system: NY (Osteosarcoma)
In short: as §1

[16] = system: ONS-76 (Other Solid Carcinomas)
In short: as §1

[17] = system: PA-1 (Ovarian Carcinoma)
In short: as §1

[18] = system: PANC-10-05 (Pancreatic Carcinoma)
In short: as §1

[19] = system: TT2609-C02 (Thyroid Gland Carcinoma)
In short: as §1

[20] = system: VCaP (Prostate Carcinoma)
In short: as §1

SMILES	Bliss excess [1]	Bliss excess [2]	Bliss excess [3]	Bliss excess [4]	Bliss excess [5]	Bliss excess [6]	Bliss excess [7]	Bliss excess [8]	Bliss excess [9]	Bliss excess [10]	Bliss excess [11]	Bliss excess [12]	Bliss excess [13]	Bliss excess [14]	Bliss excess [15]	Bliss excess [16]	Bliss excess [17]	Bliss excess [18]	Bliss excess [19]	Bliss excess [20]
CN(C)CCCOc1ccc(-c2ccc3ncc4c(c3c2)n(C2CCOCC2)c(=O)n4C)cn1 [AZD0156] + C=CCn1c(=O)c2cnc(Nc3ccc(N4CCN(C)CC4)cc3)nc2n1-c1cccc(C(C)(C)O)n1 [AZD1775] (first compound max 1 µM, partner max 1 µM)	-0.0587	-0.0532	-0.0207	-0.0301	-0.0512	-0.115	-0.0101	-0.0452	-0.034	-0.0159	-0.0358	-0.0641	-0.0306	-0.0931	-0.0212	-0.0487	-0.0546	-0.0519	-0.0119	-0.0751
CN(C)CCCOc1ccc(-c2ccc3ncc4c(c3c2)n(C2CCOCC2)c(=O)n4C)cn1 [AZD0156] + CCN(CCO)CCCOc1ccc2c(Nc3cc(CC(=O)Nc4cccc(F)c4)[nH]n3)ncnc2c1 [AZD2811] (first compound max 1 µM, 7x7, partner max 1 µM)	-0.0033	-0.0302	0.0216	0.0269	0.0191	0.0607	-0.0947	-0.0488	-0.0137	-0.0191	0.0279	-0.007	-0.0204	0.0802	-0.0466	-0.0169	0.038	-0.0169	-0.0032	-0.0484
CN(C)CCCOc1ccc(-c2ccc3ncc4c(c3c2)n(C2CCOCC2)c(=O)n4C)cn1 [AZD0156] + C[C@@H]1COCCN1C2=NC(=NC(=C2)C3(CC3)[S@](=N)(=O)C)C4=C5C=CNC5=NC=C4 [AZD6738] (first compound max 1 µM, 7x7, partner max 10 µM)	0.0389	-0.0347	0.0673	0.0162	-0.0046	0.0265	-0.0353	-0.015	0.0016	-0.0153	0.0296	0.0005	-0.0461	-0.0368	-0.0372	0.0096	-0.0238	-0.0415	-0.0067	-0.037
CN(C)CCCOc1ccc(-c2ccc3ncc4c(c3c2)n(C2CCOCC2)c(=O)n4C)cn1 [AZD0156] + O=C(c1cc(Cc2n[nH]c(=O)c3ccccc23)ccc1F)N1CCN(C(=O)C2CC2)CC1 [Olaparib] (first compound max 3 µM, partner max 3 µM)	0.079	0.047	0.0648	0.0098	0.0481	0.092	-0.0154	-0.0116	0.0066	-0.0103	0.0269	0.0465	-0.0248	-0.0106	-0.0279	0.0366	0.122	0.0378	0.0251	0.0063
C=CCn1c(=O)c2cnc(Nc3ccc(N4CCN(C)CC4)cc3)nc2n1-c1cccc(C(C)(C)O)n1 [AZD1775] + C1CN(CCC1(C(=O)N[C@@H](CCO)C2=CC=C(C=C2)Cl)N)C3=NC=NC4=C3C=CN4 [Capivasertib] (first compound max 3 µM, partner max 3 µM)	0.0277	-0.0315	0.018	0.0187	0.0104	-0.0057	0.0946	-0.0726	0.002	-0.0316	-0.0769	0.0271	-0.035	0.0202	-0.0746	-0.0258	-0.0229	-0.102	0.0087	-0.061
C=CCn1c(=O)c2cnc(Nc3ccc(N4CCN(C)CC4)cc3)nc2n1-c1cccc(C(C)(C)O)n1 [AZD1775] + C[C@@H]1COCCN1C2=NC(=NC(=C2)C3(CC3)[S@](=N)(=O)C)C4=C5C=CNC5=NC=C4 [AZD6738] (first compound max 1 µM, partner max 10 µM)	-0.032	-0.0536	0.0324	-0.006	-0.0535	0.0133	-0.0414	-0.0397	0.111	0.0017	-0.0161	0.0228	-0.0355	0.0015	-0.0386	-0.0256	-0.01	-0.0611	-0.0026	0.006
C=CCn1c(=O)c2cnc(Nc3ccc(N4CCN(C)CC4)cc3)nc2n1-c1cccc(C(C)(C)O)n1 [AZD1775] + O=C(c1cc(Cc2n[nH]c(=O)c3ccccc23)ccc1F)N1CCN(C(=O)C2CC2)CC1 [Olaparib] (first compound max 1 µM, partner max 10 µM)	-0.0163	-0.067	-0.004	-0.0722	-0.0352	-0.0848	-0.148	-0.0434	-0.0208	-0.0132	-0.0308	-0.0262	-0.053	-0.0547	-0.0731	-0.0826	-0.0037	-0.0871	-0.0311	-0.0494
COc1nnc2ccc(N3CCC(c4ccc(OCCN5CCN(C)C(=O)[C@H]5C)cc4)CC3)nn12 [AZD5153] + CN(CC[C@H](CSC1=CC=CC=C1)NC2=C(C=C(C=C2)S(=O)(=O)NC(=O)C3=CC=C(C=C3)N4CCC(CC4)[C@H](C5=CC=CC=C5C6=CC=C(C=C6)Cl)O)S(=O)(=O)C(F)(F)F)CCO [AZD4320] (first compound max 1 µM, 7x7, partner max 1 µM)	0.002	0.0103	-0.019	-0.0125	0.0455	0.0506	–	0.0077	-0.0119	–	0.0929	–	0.0088	–	–	–	0.0659	–	0.0257	–
Cc1c2c(nn1C)CSCc1cc(n(C)n1)CSc1cc(c3ccccc3c1)OCCCc1c(C(=O)O)n(C)c3c-2c(Cl)ccc13 [AZD5991] + C1CN(CCC1(C(=O)N[C@@H](CCO)C2=CC=C(C=C2)Cl)N)C3=NC=NC4=C3C=CN4 [Capivasertib] (first compound max 1 µM, 7x7, partner max 3 µM)	0.0821	-0.0091	-0.037	-0.0211	-0.0094	0.0059	-0.0174	-0.0245	0.0559	–	-0.0102	-0.0048	-0.0306	-0.0261	0.0079	-0.0003	0.0437	0.0422	-0.019	0.0545
Cc1c2c(nn1C)CSCc1cc(n(C)n1)CSc1cc(c3ccccc3c1)OCCCc1c(C(=O)O)n(C)c3c-2c(Cl)ccc13 [AZD5991] + CCN(CCO)CCCOc1ccc2c(Nc3cc(CC(=O)Nc4cccc(F)c4)[nH]n3)ncnc2c1 [AZD2811] (first compound max 1 µM, 7x7, partner max 1 µM)	0.114	0.0054	-0.0146	0.072	0.061	-0.0057	–	0.0116	0.105	0.0533	0.0586	0.108	0.0208	0.144	0.0542	0.0619	0.0489	-0.0242	0.0119	0.08
Cc1c2c(nn1C)CSCc1cc(n(C)n1)CSc1cc(c3ccccc3c1)OCCCc1c(C(=O)O)n(C)c3c-2c(Cl)ccc13 [AZD5991] + C[C@@H]1COCCN1C2=NC(=NC(=C2)C3(CC3)[S@](=N)(=O)C)C4=C5C=CNC5=NC=C4 [AZD6738] (first compound max 1 µM, 7x7, partner max 10 µM)	0.0326	0.107	-0.014	0.0409	0.109	0.0018	-0.0064	0.0481	0.0518	0.124	–	-0.0036	0.023	0.0193	0.0486	-0.0017	0.0702	0.0415	0.0043	0.0348
CC(=O)c1c(C)c2cnc(Nc3ccc(N4CCNCC4)cn3)nc2n(C2CCCC2)c1=O [Palbociclib] + CN(CC[C@H](CSC1=CC=CC=C1)NC2=C(C=C(C=C2)S(=O)(=O)NC(=O)C3=CC=C(C=C3)N4CCC(CC4)[C@H](C5=CC=CC=C5C6=CC=C(C=C6)Cl)O)S(=O)(=O)C(F)(F)F)CCO [AZD4320] (first compound max 10 µM, 7x7, partner max 1 µM)	-0.001	-0.134	-0.0498	-0.0702	-0.143	0.0047	–	-0.0771	-0.0722	–	-0.0168	–	-0.0845	–	–	–	-0.0315	–	-0.0615	–
CCc1c2c(nc3ccc(O)cc13)-c1cc3c(c(=O)n1C2)COC(=O)[C@]3(O)CC [SN-38] + O=C(c1cc(Cc2n[nH]c(=O)c3ccccc23)ccc1F)N1CCN(C(=O)C2CC2)CC1 [Olaparib] (first compound max 0.3 µM, 7x7, partner max 10 µM)	0.0671	0.036	0.0446	–	-0.0274	–	-0.0043	0.0672	–	0.0226	-0.0419	0.0009	-0.0219	0.101	0.071	0.05	0.0044	0.0059	–	0.104
C[C@@H](c1ccc2nccn2c1)n1nnc2ncc(-c3cnn(C)c3)nc21 [Savolitinib] + CN(CC[C@H](CSC1=CC=CC=C1)NC2=C(C=C(C=C2)S(=O)(=O)NC(=O)C3=CC=C(C=C3)N4CCC(CC4)[C@H](C5=CC=CC=C5C6=CC=C(C=C6)Cl)O)S(=O)(=O)C(F)(F)F)CCO [AZD4320] (first compound max 1 µM, 7x7, partner max 1 µM)	-0.0399	-0.0589	-0.0322	-0.0647	-0.0975	0.0158	–	-0.0699	-0.0198	–	-0.0668	–	-0.0714	–	–	–	-0.0096	–	-0.103	–
CC(=O)Nc1cccc(-n2c(=O)n(C3CC3)c(=O)c3c(Nc4ccc(I)cc4F)n(C)c(=O)c(C)c32)c1 [Trametinib] + Cc1nc(-c2cn3c(n2)-c2ccc(-c4cnn(C(C)(C)C(N)=O)c4)cc2OCC3)n(C(C)C)n1 [Taselisib] (first compound max 1 µM, 7x7, partner max 10 µM)	0.143	0.0344	0.0785	0.136	0.0153	0.0018	–	0.0954	0.0455	0.0677	-0.0104	0.243	0.0206	0.0284	0.0847	0.0124	0.05	0.0968	0.0909	0.0444
